Measured values reported in BindingDB's records for PubMed 34154424 (Bayer AG).

How the values were obtained:
[1] = biological target: Mitogen-activated protein kinase kinase kinase 7, TAK1 kinase (Homo sapiens) (UniProt O43318); assay: Inhibition of Tak1 (unknown origin) by competition binding assay
[2] = biological target: Mitogen-activated protein kinase kinase kinase 7, TAK1 kinase (Homo sapiens) (UniProt O43318); assay: Inhibition of Tak1 (unknown origin) in presence of ATP
[3] = biological target: Tyrosine-protein kinase Fyn (Homo sapiens) (UniProt P06241); assay: Inhibition of T-Fyn (unknown origin) by HTRF assay
Sequence of Tyrosine-protein kinase Fyn (Homo sapiens) (P06241 whole entry, looked up): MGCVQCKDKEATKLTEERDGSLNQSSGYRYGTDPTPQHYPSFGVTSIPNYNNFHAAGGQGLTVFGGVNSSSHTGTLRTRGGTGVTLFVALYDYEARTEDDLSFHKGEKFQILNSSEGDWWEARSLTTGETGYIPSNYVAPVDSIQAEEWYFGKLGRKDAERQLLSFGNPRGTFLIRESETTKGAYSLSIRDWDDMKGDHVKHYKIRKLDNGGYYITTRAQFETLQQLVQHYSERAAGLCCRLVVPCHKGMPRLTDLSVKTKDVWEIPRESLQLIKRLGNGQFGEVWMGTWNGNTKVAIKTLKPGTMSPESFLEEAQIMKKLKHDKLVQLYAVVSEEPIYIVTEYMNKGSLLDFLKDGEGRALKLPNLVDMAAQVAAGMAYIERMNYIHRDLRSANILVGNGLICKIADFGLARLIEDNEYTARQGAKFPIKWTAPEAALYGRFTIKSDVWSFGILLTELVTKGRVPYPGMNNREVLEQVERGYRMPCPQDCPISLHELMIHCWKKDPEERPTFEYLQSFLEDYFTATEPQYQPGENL

Sequence of Mitogen-activated protein kinase kinase kinase 7, TAK1 kinase (Homo sapiens) (O43318 whole entry, looked up): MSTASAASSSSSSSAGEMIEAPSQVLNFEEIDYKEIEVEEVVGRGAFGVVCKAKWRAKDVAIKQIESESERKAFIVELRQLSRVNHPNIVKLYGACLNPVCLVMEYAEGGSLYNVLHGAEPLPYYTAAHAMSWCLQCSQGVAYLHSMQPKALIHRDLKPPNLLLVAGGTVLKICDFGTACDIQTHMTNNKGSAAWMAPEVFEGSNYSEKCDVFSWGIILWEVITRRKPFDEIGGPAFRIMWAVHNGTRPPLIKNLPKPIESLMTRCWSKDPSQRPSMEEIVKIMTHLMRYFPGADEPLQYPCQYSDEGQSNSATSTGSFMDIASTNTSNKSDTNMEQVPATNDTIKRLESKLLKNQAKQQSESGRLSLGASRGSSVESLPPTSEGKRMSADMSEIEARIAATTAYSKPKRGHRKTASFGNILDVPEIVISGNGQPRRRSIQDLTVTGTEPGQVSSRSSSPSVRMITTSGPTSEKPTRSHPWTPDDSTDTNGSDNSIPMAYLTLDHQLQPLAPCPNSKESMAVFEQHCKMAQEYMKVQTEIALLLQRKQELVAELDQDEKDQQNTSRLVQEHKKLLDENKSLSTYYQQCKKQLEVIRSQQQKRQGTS

With `C[C@H]1CC(=O)Nc2cc(C(=O)NCCC3CC3)ccc2N1C(=O)N1CC2CC2C1` (stereo partly drawn) the IC50 [1] was over 2 nM, the IC50 [2] was over 2 nM and the IC50 [3] was over 5.7 nM.
